Data set [1] addresses T1, human recombinant HDAC1 (Homo sapiens, UniProt Q13547).
T1 construct: purchased BPS Bioscience, CA
In words: HDAC activity assay (fluorogenic HDAC assay kit), HDAC1. The class given is biochemical. Particulars: human recombinant HDAC1, 37 °C, 30 min.
Description: (§2) HDAC activity was measured using fluorogenic HDACs assay kit (BPS Bioscience, CA) according to the manufacturer's protocol. […] Fluorescence values were measured at an excitation of 350 nm and an emission of 440 nm using SpectraMax M2 microplate reader. IC50 values were calculated using Origin software. IC50 values were determined using nonlinear regression analysis.

In data set [2] the target is T2, human recombinant HDAC2 (Homo sapiens, UniProt Q92769).
T2 construct: purchased BPS Bioscience, CA
In words: HDAC activity assay (fluorogenic HDAC assay kit), HDAC2. The class given is biochemical. Particulars: human recombinant HDAC2, 37 °C, 30 min.
Description: as §2

Data set [3] deals with T3, human recombinant HDAC6 (Homo sapiens, UniProt Q9UBN7).
T3 construct: purchased BPS Bioscience, CA
T3 sequence (Q9UBN7 1-1215): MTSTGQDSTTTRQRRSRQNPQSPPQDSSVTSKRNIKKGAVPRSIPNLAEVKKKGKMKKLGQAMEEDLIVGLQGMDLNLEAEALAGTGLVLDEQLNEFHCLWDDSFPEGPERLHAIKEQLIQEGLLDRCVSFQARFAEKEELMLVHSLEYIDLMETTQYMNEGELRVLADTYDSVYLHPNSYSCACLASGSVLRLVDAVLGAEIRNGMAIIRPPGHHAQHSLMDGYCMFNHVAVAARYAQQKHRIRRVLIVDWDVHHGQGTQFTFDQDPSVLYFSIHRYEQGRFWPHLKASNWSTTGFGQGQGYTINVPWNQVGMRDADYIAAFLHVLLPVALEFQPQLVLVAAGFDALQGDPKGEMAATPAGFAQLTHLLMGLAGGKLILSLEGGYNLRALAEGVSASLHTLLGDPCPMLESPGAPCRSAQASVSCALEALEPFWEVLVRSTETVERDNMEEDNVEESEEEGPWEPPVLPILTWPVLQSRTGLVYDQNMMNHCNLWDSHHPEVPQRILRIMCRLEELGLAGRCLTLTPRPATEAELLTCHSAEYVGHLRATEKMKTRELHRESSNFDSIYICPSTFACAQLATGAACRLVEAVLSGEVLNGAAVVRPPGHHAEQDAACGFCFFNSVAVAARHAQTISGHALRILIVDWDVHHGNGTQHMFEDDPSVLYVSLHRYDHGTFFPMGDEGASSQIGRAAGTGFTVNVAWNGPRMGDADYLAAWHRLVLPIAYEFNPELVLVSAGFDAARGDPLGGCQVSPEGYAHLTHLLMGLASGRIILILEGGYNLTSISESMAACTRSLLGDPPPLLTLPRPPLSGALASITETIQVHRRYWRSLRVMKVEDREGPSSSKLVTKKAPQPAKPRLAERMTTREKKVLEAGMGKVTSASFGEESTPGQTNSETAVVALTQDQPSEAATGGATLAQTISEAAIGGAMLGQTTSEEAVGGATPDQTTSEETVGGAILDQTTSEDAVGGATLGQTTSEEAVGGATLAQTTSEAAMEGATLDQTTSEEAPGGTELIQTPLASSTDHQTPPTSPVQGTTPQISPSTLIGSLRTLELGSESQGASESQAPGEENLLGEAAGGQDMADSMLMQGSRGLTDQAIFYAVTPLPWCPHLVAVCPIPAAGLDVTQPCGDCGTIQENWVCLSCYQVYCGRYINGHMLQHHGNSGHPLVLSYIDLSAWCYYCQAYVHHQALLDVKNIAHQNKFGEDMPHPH
As to the kind of experiment: HDAC activity assay (fluorogenic HDAC assay kit), HDAC6.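 On all read-outs here: underlying HDAC activity read as fluorescence, excitation 350 nm and emission 440 nm.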 Particulars: for IC50: human recombinant HDAC6, 37 °C, 30 min; for Selectivity index HDAC6/1: ratio of IC50 HDAC1 to IC50 HDAC6; for Selectivity index HDAC6/2: ratio of IC50 HDAC2 to IC50 HDAC6. It is filed as biochemical.
Description: as §2

For data set [4], the system named is tubulin. As to the kind of experiment: Tubulin polymerization assay. It is filed as biochemical. As to conditions: in words.
Sequence of tubulin (P02550 whole entry): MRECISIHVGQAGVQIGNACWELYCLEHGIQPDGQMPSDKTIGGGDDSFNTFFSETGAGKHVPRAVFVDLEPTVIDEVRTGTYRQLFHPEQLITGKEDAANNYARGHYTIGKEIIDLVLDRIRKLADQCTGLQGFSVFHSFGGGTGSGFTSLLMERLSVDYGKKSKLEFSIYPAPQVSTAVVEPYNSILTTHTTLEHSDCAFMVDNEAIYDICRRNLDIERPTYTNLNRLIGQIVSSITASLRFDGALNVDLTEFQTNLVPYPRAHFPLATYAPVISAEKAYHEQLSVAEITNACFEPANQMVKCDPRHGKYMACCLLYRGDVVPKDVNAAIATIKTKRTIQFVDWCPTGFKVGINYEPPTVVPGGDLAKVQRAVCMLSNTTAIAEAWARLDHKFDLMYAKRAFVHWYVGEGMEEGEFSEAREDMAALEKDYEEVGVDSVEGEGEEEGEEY
Sequence of tubulin (P02554 whole entry, further chain): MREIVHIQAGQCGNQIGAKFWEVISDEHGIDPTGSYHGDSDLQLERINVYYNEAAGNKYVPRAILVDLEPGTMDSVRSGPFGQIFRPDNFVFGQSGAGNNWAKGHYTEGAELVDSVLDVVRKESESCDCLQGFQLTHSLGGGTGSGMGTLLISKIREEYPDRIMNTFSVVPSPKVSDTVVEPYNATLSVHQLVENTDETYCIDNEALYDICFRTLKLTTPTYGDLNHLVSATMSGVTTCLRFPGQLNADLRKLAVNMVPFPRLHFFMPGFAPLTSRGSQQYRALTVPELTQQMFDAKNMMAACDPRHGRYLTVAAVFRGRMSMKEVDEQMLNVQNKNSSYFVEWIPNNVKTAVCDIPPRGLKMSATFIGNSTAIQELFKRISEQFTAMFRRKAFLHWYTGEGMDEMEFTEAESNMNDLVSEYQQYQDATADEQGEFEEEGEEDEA
Description: Tubulin polymerization assay was performed using a fluorescence-based tubulin polymerization assay Kit (BK011, Cytoskeleton, Inc.) according to the manufacturer's protocol. […] After addition of polymerization buffer and 0.4 mM GTP, the reaction mixtures were transferred to 0 °C cuvettes in a recording spectrophotometer. […] Data from each well was normalized relative to initial readings,[43] and plots of ΔODmax (final−initial values) against compound concentration, expressed relative to vehicle control (DMSO only), were used to calculate IC50 values.[44] IC50 values were determined using nonlinear regression analysis.
The test system of data set [5] is human lung adenocarcinoma cells A549. In words: Antiproliferative activity, CCK-8 assay, A549. It is filed as cell-based. As to conditions: CCK-8, 72 hours, mean ± SD. (Tetrazolium dyes change colour on reduction, which living cells bring about.)
Description: (§3) Antitumor activities in vitro of synthetic compounds were measured using CCK-8 Assay Kit (BPS Bioscience, CA) according to the manufacturer's protocol. […] Control cells were treated with serum free medium. Then CCK-8 solution was added to each well to determine cell viability. The IC50 values were calculated according to the dose-dependent curves (Origin software). IC50 values were determined using nonlinear regression analysis.
The subject of data set [6] is liver cancer cells HepG2. In words: Antiproliferative activity, CCK-8 assay, HepG2. As to conditions: Homo sapiens, CCK-8, 72 hours, mean ± SD. It is filed as cell-based.
Description: as §3
Data set [7] concerns breast cancer cells MCF-7. As to the kind of experiment: Antiproliferative activity, CCK-8 assay, MCF-7. It is filed as cell-based. As to conditions: Homo sapiens, MCF7; CCK-8, 72 hours; mean ± SD.
Description: as §3
In data set [8] the test system is prostate cancer cells PC-3. As to the kind of experiment: Antiproliferative activity, CCK-8 assay, PC-3. The class given is cell-based. As to conditions: Homo sapiens; CCK-8, 72 hours; mean ± SD.
Description: as §3
Data set [9] relates to human cervical carcinoma cells HeLa. In words: Antiproliferative activity, CCK-8 assay, HeLa. It is filed as cell-based. Particulars: CCK-8, 72 hours, mean ± SD, read-out: IC50 HeLa. As to the method: (§1) Antitumor activities in vitro of synthetic compounds were measured using CCK-8 Assay Kit (BPS Bioscience, CA) according to the manufacturer's protocol. Cells were plated into 96-well plates with appropriate test compounds for 72 hours. Control cells were treated with serum free medium. Then CCK-8 solution was added to each well to determine cell viability. The IC50 values were calculated according to the dose-dependent curves (Origin software). IC50 values were determined using nonlinear regression analysis.

In data set [10] the test system is healthy MCF-10A cells. In words: Toxicity to healthy cells, CCK-8 assay, MCF-10A. The class given is cell-based. Particulars: Homo sapiens, MCF-10A; healthy cells, CCK-8, 72 hours; >100 = not determinable up to highest concentrations tested.
Description: as §3
Data set [11] relates to five cancer cells, A549, HepG2, MCF-7, PC-3, HeLa. In words: Antiproliferative activity, CCK-8 assay, statements on all five cancer cell lines. The class given is cell-based, human. As to the method:
as §1

A value given as a limit tells only on which side of the number the result lay.

T2 sequence (Q92769 whole entry): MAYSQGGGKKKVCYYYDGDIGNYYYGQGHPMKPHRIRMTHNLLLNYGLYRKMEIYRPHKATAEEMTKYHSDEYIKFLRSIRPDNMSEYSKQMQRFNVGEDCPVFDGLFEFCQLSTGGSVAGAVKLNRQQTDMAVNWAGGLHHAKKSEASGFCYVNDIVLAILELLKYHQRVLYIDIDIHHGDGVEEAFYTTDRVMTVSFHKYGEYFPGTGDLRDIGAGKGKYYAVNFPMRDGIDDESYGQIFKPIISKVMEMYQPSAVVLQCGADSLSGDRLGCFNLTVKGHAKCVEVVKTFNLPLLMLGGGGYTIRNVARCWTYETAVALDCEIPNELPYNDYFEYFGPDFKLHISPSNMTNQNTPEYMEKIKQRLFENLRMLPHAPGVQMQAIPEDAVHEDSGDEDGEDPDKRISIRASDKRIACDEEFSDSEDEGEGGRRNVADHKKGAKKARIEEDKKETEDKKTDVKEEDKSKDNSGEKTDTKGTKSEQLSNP
T1 sequence (Q13547 whole entry): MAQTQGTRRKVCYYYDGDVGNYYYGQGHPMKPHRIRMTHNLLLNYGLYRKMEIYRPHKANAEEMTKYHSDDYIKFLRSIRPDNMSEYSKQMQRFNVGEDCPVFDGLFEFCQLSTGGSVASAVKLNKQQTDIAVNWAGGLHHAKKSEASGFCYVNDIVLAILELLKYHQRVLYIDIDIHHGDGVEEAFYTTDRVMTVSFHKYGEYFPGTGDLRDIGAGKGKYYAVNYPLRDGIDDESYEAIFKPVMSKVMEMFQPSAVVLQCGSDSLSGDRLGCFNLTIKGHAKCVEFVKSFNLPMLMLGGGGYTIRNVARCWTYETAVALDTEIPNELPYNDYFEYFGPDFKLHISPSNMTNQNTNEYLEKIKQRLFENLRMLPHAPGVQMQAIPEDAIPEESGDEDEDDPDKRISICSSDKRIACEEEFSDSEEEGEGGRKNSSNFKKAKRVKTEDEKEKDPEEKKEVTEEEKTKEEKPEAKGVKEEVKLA

What is called melting point is the temperature of the solid-liquid transition. With `C[C@H]1COc2c(N3CCN(C)CC3)c(F)cc3c(=O)c(C(=O)NCc4cn(CCCCCCC(=O)O)nn4)cn1c23` [Compound 7b, (S)-7-(4-((9-fluoro-3-methyl-10-(4-methylpiperazin-1-yl)-7-oxo-3,7-dihydro-2H-[1,4]oxazino[2,3,4-ij]quinoline-6-carboxamido)methyl)-1H-1,2,3-triazol-1-yl)heptanoic acid], the melting point was 187 to 190 °C. The IC50 in data set [1] is 2.1 ± 0.37 µM. Besides, the IC50 in [2] was found to be 4.6 ± 0.62 µM. Besides, in data set [3], the IC50 was 1.1 ± 0.28 µM, the “Selectivity index HDAC6/1” value is 1.9 and the “Selectivity index HDAC6/2” value turned out to be 4.2. The “tubulin polymerization inhibition compared with reference compound” value in data set [4] is “equipotent to reference compound CA-4”. Further, the IC50 in data set [5] came to 9.3 ± 0.82 µM. In [6], this compound registered an IC50 of 9.9 ± 0.62 µM. In addition, the IC50 in data set [7] came to 7.8 ± 0.71 µM. For the same compound, the IC50 in data set [8] is 11.1 ± 1.16 µM. In addition, the IC50 in data set [9] turned out to be 8.4 ± 0.62 µM. The compound further registered an IC50 in [10] of more than 100 µM.

`C[C@H]1COc2c(N3CCN(C)CC3)c(F)cc3c(=O)c(C(=O)NCc4cn(CCCCCCCC(=O)O)nn4)cn1c23` [Compound 7c, (S)-8-(4-((9-fluoro-3-methyl-10-(4-methylpiperazin-1-yl)-7-oxo-3,7-dihydro-2H-[1,4]oxazino[2,3,4-ij]quinoline-6-carboxamido)methyl)-1H-1,2,3-triazol-1-yl)octanoic acid]: the melting point is 203 to 205 °C. The IC50 in [1] turned out to be 3.8 ± 0.46 µM. Moreover, in data set [2], the IC50 was determined as 6.9 ± 0.55 µM. In data set [3], the IC50 was determined as 2.7 ± 0.36 µM, the “Selectivity index HDAC6/1” value is 1.4 and the “Selectivity index HDAC6/2” value stood at 2.6. In data set [5], this compound showed an IC50 of 11.9 ± 1.06 µM. Moreover, in data set [6], the IC50 worked out at 11.3 ± 1.24 µM. Besides, in [7], the IC50 came out at 12.7 ± 1.18 µM. The same compound returned an IC50 in data set [8] of 13.6 ± 1.29 µM. Moreover, the IC50 in data set [9] amounted to 10.6 ± 0.24 µM. Besides, the IC50 in data set [10] is more than 100 µM.

For the compound `C[C@H]1COc2c(N3CCN(C)CC3)c(F)cc3c(=O)c(C(=O)OCc4cn(CCCCCCC(=O)NO)nn4)cn1c23` [Compound 8b, (S)-(1-(7-(hydroxyamino)-7-oxoheptyl)-1H-1,2,3-triazol-4-yl)methyl-9-fluoro-3-methyl-10-(4-methylpiperazin-1-yl)-7-oxo-3,7-dihydro-2H-[1,4]oxazino[2,3,4-ij]quinoline-6-carboxylate], the IC50 in data set [1] is 0.067 ± 0.019 µM; in data set [2] it was 0.082 ± 0.015 µM; in data set [3] it was 0.03 ± 0.019 µM; in data set [5] it was 3.5 ± 0.17 µM; in data set [6] it was 5.2 ± 0.56 µM; in data set [7] it was 0.8 ± 0.15 µM. The IC50 in data set [8] is 8.5 ± 0.79 µM; in [9], 2.7 ± 0.17 µM; in [10] it was more than 100 µM. In addition, the “Selectivity index HDAC6/1” value in data set [3] was 2.2. Moreover, in data set [3], the “Selectivity index HDAC6/2” value stood at 2.7. In data set [4], the “tubulin polymerization inhibition compared with reference compound” value was “equipotent to reference compound CA-4”.

For `C[C@H]1COc2c(N3CCN(C)CC3)c(F)cc3c(=O)c(C(=O)NCc4cn(CCCCCC(=O)NO)nn4)cn1c23` [Compound 9a, (S)-9-Fluoro-N-((1-(6-(hydroxyamino)-6-oxohexyl)-1H-1,2,3-triazol-4-yl)methyl)-3-methyl-10-(4-methylpiperazin-1-yl)-7-oxo-3,7-dihydro-2H-[1,4]oxazino[2,3,4-ij]quinoline-6-carboxamide], the IC50 in data set [1] was found to be 0.073 ± 0.045 µM; in data set [3], 0.049 ± 0.023 µM; in data set [5], 5.6 ± 0.59 µM; in [6], 6.6 ± 0.78 µM; in [7], 1.1 ± 0.26 µM; in data set [8], 9.6 ± 1.05 µM. In addition, the IC50 in data set [9] was 5.2 ± 0.82 µM; in data set [10], more than 100 µM. In [3], the “Selectivity index HDAC6/1” value came out at 1.5. In data set [3], the “Selectivity index HDAC6/2” value was 1.7. Further, the “tubulin polymerization inhibition compared with reference compound” value in data set [4] is on record as “equipotent to reference compound CA-4”.

In the case of `C[C@H]1COc2c(N3CCN(C)CC3)c(F)cc3c(=O)c(C(=O)NCc4cn(CCCCCCC(=O)NO)nn4)cn1c23` [Compound 9b, (S)-9-Fluoro-N-((1-(7-(hydroxyamino)-7-oxoheptyl)-1H-1,2,3-triazol-4-yl)methyl)-3-methyl-10-(4methylpiperazin-1-yl)-7-oxo-3,7-dihydro-2H-[1,4]oxazino[2,3,4-ij]quinoline-6-carboxamide], the IC50 in [1] was determined as 0.029 ± 0.018 µM; in data set [2] it was 0.041 ± 0.014 µM; in data set [3] it was 0.021 ± 0.007 µM; in data set [5], 2.1 ± 0.26 µM; in data set [6] it was 2.3 ± 0.31 µM; in data set [7] it was 0.3 ± 0.14 µM. Also, the IC50 was 4.9 ± 0.43 µM in [8], 1.1 ± 0.15 µM in data set [9] and more than 100 µM in [10]. In addition, the “Selectivity index HDAC6/1” value in data set [3] was found to be 1.4. Besides, the “Selectivity index HDAC6/2” value in data set [3] is 2.0. Besides, the “tubulin polymerization inhibition compared with reference compound” value in [4] was “equipotent to reference compound CA-4”. The “fold more potent than levofloxacin, antiproliferative activity” value in data set [11] (against all cancer cells) is “over 20 fold”.

For `C[C@H]1COc2c(N3CCN(C)CC3)c(F)cc3c(=O)c(C(=O)O)cn1c23` [Levofloxacin, levofloxacin, reference compound], the IC50 in [5] was 76.3 ± 6.51 µM; in data set [6], more than 100 µM; in [7], 64.2 ± 5.67 µM; in data set [8], more than 100 µM; in [9] it was 71.1 ± 4.98 µM; in [10], more than 100 µM. The IC50 in data set [11] (Homo sapiens, A549, HepG2, MCF-7, PC-3, HeLa, read-out: IC50 proliferation of the five cancer cells) is more than 70 µM.

For the origin of these results see publication PMC9080233, “Synthesis and biological evaluation of novel quinolone derivatives dual targeting histone deacetylase and tubulin polymerization as antiproliferative agents” (RSC Advances, 2018).
